Experimental data published in paper PMC9064382 (RSC Advances, 2019).

Key:
[1] = molecular target: T1, hOATP1B3 (Homo sapiens, UniProt Q9NPD5); assay: Uptake of aconitum alkaloids in hOATP1B3-transfected HEK293 cells vs mock; format: in vitro ADME; conditions: 10 μm, 2 min
T1 sequence (Q9NPD5 1-702): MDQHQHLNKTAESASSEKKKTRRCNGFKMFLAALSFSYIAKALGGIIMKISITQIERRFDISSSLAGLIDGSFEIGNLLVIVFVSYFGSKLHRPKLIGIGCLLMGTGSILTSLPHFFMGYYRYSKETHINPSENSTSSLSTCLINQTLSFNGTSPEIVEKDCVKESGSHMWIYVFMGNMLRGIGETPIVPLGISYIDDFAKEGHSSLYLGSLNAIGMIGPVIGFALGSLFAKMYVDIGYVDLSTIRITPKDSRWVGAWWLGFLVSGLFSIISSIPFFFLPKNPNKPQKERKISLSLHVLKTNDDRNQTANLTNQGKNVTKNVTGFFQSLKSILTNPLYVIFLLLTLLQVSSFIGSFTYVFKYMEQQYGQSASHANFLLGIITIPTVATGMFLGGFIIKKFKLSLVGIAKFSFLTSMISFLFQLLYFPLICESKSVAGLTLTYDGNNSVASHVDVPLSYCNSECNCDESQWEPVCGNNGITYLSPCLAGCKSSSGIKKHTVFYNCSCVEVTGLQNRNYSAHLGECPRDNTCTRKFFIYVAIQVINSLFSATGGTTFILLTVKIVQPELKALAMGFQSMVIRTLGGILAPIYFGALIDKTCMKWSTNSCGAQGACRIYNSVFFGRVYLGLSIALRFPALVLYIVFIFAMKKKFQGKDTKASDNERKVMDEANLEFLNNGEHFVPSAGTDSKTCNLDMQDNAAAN

[2] = format: in vivo, Sprague-Dawley (SD) rats; conditions: aconitine 0.5 mg kg^−1 oral; pretreatment 15 min before; n = 6
[3] = system: OCT2; conditions: read-out: Ki, competitive inhibition of OCT2; TEA probe substrate; cited from earlier work
[4] = format: in vivo, Sprague-Dawley (SD) rats; conditions: aconitine 0.5 mg kg^−1 oral; pretreatment 15 min before; n = 6; remark: listed apart in the source
[5] = molecular target: T2, hOCT1 (Homo sapiens, UniProt O15245); assay: Uptake of aconitum alkaloids in hOCT1-transfected cells vs mock; format: in vitro ADME; conditions: 10 μm, 5 min
T2 sequence (O15245 1-554): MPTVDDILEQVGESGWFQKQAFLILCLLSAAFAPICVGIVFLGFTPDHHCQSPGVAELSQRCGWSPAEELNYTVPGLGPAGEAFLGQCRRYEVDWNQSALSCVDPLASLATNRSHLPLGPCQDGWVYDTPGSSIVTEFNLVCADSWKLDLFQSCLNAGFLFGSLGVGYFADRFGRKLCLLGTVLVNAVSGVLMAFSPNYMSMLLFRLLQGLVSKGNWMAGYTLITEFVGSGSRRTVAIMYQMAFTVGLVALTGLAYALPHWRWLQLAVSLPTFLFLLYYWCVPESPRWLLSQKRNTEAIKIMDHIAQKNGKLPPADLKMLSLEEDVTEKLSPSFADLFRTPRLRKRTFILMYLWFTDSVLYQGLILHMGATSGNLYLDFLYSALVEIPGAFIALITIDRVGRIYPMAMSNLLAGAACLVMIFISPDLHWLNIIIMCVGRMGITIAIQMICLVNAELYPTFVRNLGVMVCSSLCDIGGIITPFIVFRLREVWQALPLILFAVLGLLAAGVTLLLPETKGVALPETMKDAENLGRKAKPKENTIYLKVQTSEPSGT

CCN1C[C@]2(COC)[C@H](O)C[C@H](OC)[C@@]34[C@@H]5C[C@@]6(O)[C@H](OC(=O)c7ccccc7)[C@@H]5[C@@](OC(C)=O)([C@@H]([C@H](OC)[C@H]23)[C@@H]14)[C@@H](O)[C@@H]6OC [aconitine]
uptake in hOATP1B3-transfected cells, adjusted by protein concentration ([1]; HEK293-hOATP1B3): 344 pmol mg^−1 protein
concentration in hOATP1B3-transfected cells, fold of HEK293 mock cells ([1]; HEK293-hOATP1B3 vs mock): 1.35 fold
AUC(0–2 h) of aconitine in rat liver [2]: 100.3 ± 8.9 ng/h/g
Ki [3]: 145 µM
AUC(0–2 h) of aconitine in rat kidneys [4]: 60.5 ± 6.8 ng/h/g
concentration in HEK293–hOCT1, fold higher than control [5]: roughly 1.9 fold
